Assay results from patent EP0206322B1, “N-(2-carboxy)-ethyl-1,8-naphthalene imide and its salts for the treatment of diabetic retinopathies and neuropathies” (I.P.A. INTERNATIONAL PHARMACEUTICAL ASSOCIATED S.r.l., priority 1985, dated 1986).
Like-named read-outs stand apart in the source and are kept apart here.

Columns and labels:
aldose-reductase = molecular target: T1, aldose-reductase (Rattus norvegicus, UniProt P07943); test: Aldose-reductase inhibitory activity (rat lens homogenate supernatant, method of Varma and Kinoshita); assay type: biochemical, rats
T1 construct: The surnatant, after centrifugation at 3000 x g for 15 minutes, has been used; from tissue; host or cells: crystalline lenses of adult male rats (homogenate supernatant)
Method: Crystallin lenses of adult male rats have been homogenized in 0.1 M phosphate buffer pH 6.2. The surnatant, after centrifugation at 3000 x g for 15 minutes, has been used. The surnatant contained 13 mg/ml of proteins. Quercitrin (Fluka, Buchs) 1 mM dissolved in DMSO: H2O (1:10) has been used. The aldose-reductase activity has been tested by the method described by […] J.H. Kinoshita (Biochem. Pharmacol. 25, 2505, 1976) using 1 ml of final volume containing NAPDH (20 μl of a 10 mM solution), DL glyceraldheide 1.5 x 10^-3 M final, […] (25 μl of a 1 M solution) and 150 μl of a surnatant. The blank contained the same substances, except the surnatant.

[1] = tested on: platelets of rabbit blood; test: In vitro platelet antiaggregant activity, ADP-induced aggregation; assay type: cell-based
Method: (§1) The platelet antiaggregant activity of IPA 955 has been determined in comparison with a known antiaggregant activity, Ticlopidine, on the platelets of rabbit blood added with 3.6% sodium citrate in an amount of 10%. The blood was centrifuged for 15' at 1200 rpm and the surnatant was recovered for its platelet content. The residue has been further centrifuged with the aim of obtaining a "poor" plasma (3000 - 3500 rpm). The plasma platelets obtained after the first centrifugation were suitably diluted with the poor plasma, counted and the rich plasma (first centrifugation) was diluted according to the platelet count so as to obtain a final concentration of platelets of 25.10⁴ ÷ 30.10⁴/mm³.
(§2) The aggregation was induced by the addition of ADP and collagene at the specified concentrations.

[2] = Acute toxicity in the mouse (LD50 by Litchfield and Wilcoxon method); assay type: in vivo; details: oral and intravenous administration, at the tested doses
Method: The acute toxicity of IPA 955 has been studied in the mouse after oral and intravenous administration. The LD₅₀ values were calculated according to the Litchfield and Wilcoxon method (J. Pharm. Exp. Therap. 1949, 96, 99).

[3] = tested on: platelets of rabbit blood; test: In vitro platelet antiaggregant activity, collagen-induced aggregation; assay type: cell-based; details: for inhibition at 625 µM / inhibition at 1250 µM: Oryctolagus cuniculus, Platelet, read-out: Percent inhibition; for inhibition at 625 µM: compound 0.625 mM; for inhibition at 1250 µM: compound 1.25 mM
Method: as §1, §2

[4] = ADP conc. 5.0 μM, compound 1.25 mM
[5] = ADP conc. 6.25 μM, compound 0.625 mM
[6] = ADP conc. 6.25 μM, compound 1.25 mM
[7] = ADP conc. 8.3 μM, compound 1.25 mM
[8] = ADP conc. 12.5 μM, compound 0.625 mM
[9] = ADP conc. 12.5 μM, compound 1.25 mM

| Structure (SMILES) | Ki (aldose-reductase) | Percent inhibition [1, 4] | Percent inhibition [1, 5] | Percent inhibition [1, 6] | Percent inhibition [1, 7] | Percent inhibition [1, 8] | Percent inhibition [1, 9] | Percent inhibition ([1]; ADP-induced aggregation, summary over the tables) | acute toxicity [2] | inhibition at 625 µM ([3]; collagene 25 μg/ml) | inhibition at 1250 µM ([3]; collagene 25 μg/ml) | inhibition at 1250 µM ([3]; collagene 50 μg/ml) | platelet antiaggregation activity (percent inhibition) ([3]; collagen induced aggregation, summary over the tables) | activity relative to quercitrin (times higher) (aldose-reductase; ratio of Ki values against quercitrin) | Ki (aldose-reductase; supernatant of rat lens homogenate, DL glyceraldheide 1.5 x 10⁻³ M, NADPH, read-out: Ki) |
| --- | --- | --- | --- | --- | --- | --- | --- | --- | --- | --- | --- | --- | --- | --- | --- |
| C[C@@H]1O[C@@H](Oc2c(-c3ccc(O)c(O)c3)oc3cc(O)cc(O)c3c2=O)[C@H](O)[C@H](O)[C@H]1O [quercitrin, reference compound] | 6 µM | – | – | – | – | – | – | – | – | – | – | – | – | – | – |
| O=C(O)CCN1C(=O)c2cccc3cccc(c23)C1=O [IPA 955, N-(2-carboxy)-ethyl-1,8-naphthaleneimide] | – | 14.6% | 8.4% | 25.66% | 16.3% | 23.17% | 16.85% | about 20% | practically devoid of toxicity | 41% | 48.8% | 38.7% | 40 to 50% | about 6 times | 1.04 µM |
| Clc1ccccc1CN1CCc2sccc2C1 [TICLOPIDINE, Ticlopidine, reference compound] | – | 24.4% | 9.7% | 20.5% | 19.75% | 15.66% | 20.02% | – | – | 45.3% | 66.5% | 59.6% | – | – | – |
